This is an account of results in the OligoGym collection.

Where “and” joins values, the source holds several entries; their conditions need not be identical. Equal entries are not always repeated. HELM strings list units from the 5' end as sugar, base in round brackets, then linkage (d deoxyribose, r ribose, m 2'-O-methyl, p phosphodiester). Strings are as the collection lists them, not checked against the first reports. ss, as = sense and antisense strand; [fl2r] = 2'-fluoro
Also: test system not given here.

The conditions of this data set: siRNA.
For “RNA1{[fl2r](A)p.[fl2r](A)p.r(C)p.r(C)p.r(C)p.[fl2r](A)p.r(C)p.r(C)p.[fl2r](A)p.r(C)p.[fl2r](A)p.r(G)p.r(C)p.[fl2r](U)p.[fl2r](A)p.r(G)p.[fl2r](A)p.[fl2r](A)p.r(C)p.[fl2r](U)p.[fl2r](U)}|RNA2{r(A)p.r(A)p.r(G)p.r(U)p.r(U)p.r(C)p.r(U)p.r(A)p.r(G)p.r(C)p.r(U)p.r(G)p.r(U)p.r(G)p.r(G)p.r(U)p.r(G)p.r(G)p.r(G)p.r(U)p.r(U)}$$$RNA1{StrandType:ss}|RNA2{StrandType:as}$”, the target mRNA knockdown is 37% and 54%.
The substance “RNA1{[fl2r](A)p.r(A)p.[fl2r](A)p.r(C)p.[fl2r](C)p.r(A)p.[fl2r](G)p.r(G)p.[fl2r](A)p.r(A)p.[fl2r](G)p.r(G)p.[fl2r](G)p.r(G)p.[fl2r](A)p.r(A)p.[fl2r](A)p.r(U)p.[fl2r](C)p.r(T)p.r(T)}|RNA2{r(G)p.[fl2r](A)p.r(U)p.r(U)p.r(U)p.r(C)p.r(C)p.r(C)p.r(C)p.r(U)p.r(U)p.r(C)p.r(C)p.r(U)p.r(G)p.r(G)p.r(U)p.r(U)p.r(U)p.r(T)p.r(T)}$$$RNA1{StrandType:ss}|RNA2{StrandType:as}$” returned a target mRNA knockdown of 42%.
“RNA1{[fl2r](A)p.r(A)p.[fl2r](C)p.r(C)p.[fl2r](C)p.r(A)p.[fl2r](C)p.r(C)p.[fl2r](A)p.r(C)p.[fl2r](A)p.r(G)p.[fl2r](C)p.r(U)p.[fl2r](A)p.r(G)p.[fl2r](A)p.r(A)p.[fl2r](C)p.r(U)p.r(U)}|RNA2{[fl2r](G)p.r(U)p.r(U)p.r(C)p.r(U)p.r(A)p.[fl2r](G)p.r(C)p.r(U)p.[fl2r](G)p.r(U)p.[fl2r](G)p.[fl2r](G)p.r(U)p.[fl2r](G)p.[fl2r](G)p.[fl2r](G)p.r(U)p.r(U)p.r(U)p.r(U)}$$$RNA1{StrandType:ss}|RNA2{StrandType:as}$” gave a target mRNA knockdown of 57%.
Take “RNA1{[fl2r](A)p.r(A)p.[fl2r](C)p.r(U)p.[fl2r](C)p.r(U)p.[fl2r](A)p.r(C)p.[fl2r](U)p.r(G)p.[fl2r](U)p.r(G)p.[fl2r](G)p.r(A)p.[fl2r](G)p.r(U)p.[fl2r](C)p.r(G)p.[fl2r](G)p.r(T)p.r(T)}|RNA2{r(C)p.r(C)p.[fl2r](G)p.r(A)p.r(C)p.r(U)p.r(C)p.r(C)p.r(A)p.r(C)p.r(A)p.[fl2r](G)p.r(U)p.r(A)p.[fl2r](G)p.r(A)p.[fl2r](G)p.r(U)p.r(U)p.r(T)p.r(T)}$$$RNA1{StrandType:ss}|RNA2{StrandType:as}$”: the target mRNA knockdown is 25%.
On to “RNA1{[fl2r](A)p.r(A)p.[fl2r](G)p.r(G)p.[fl2r](A)p.r(C)p.[fl2r](C)p.r(U)p.[fl2r](A)p.r(G)p.[fl2r](A)p.r(G)p.[fl2r](G)p.r(A)p.[fl2r](G)p.r(U)p.[fl2r](C)p.r(A)p.r(C)p.r(T)p.r(T)}|RNA2{r(G)p.r(U)p.r(G)p.r(A)p.r(C)p.r(U)p.r(C)p.r(C)p.r(U)p.r(C)p.r(U)p.r(A)p.r(G)p.r(G)p.r(U)p.r(C)p.r(C)p.r(U)p.r(U)p.r(T)p.r(T)}$$$RNA1{StrandType:ss}|RNA2{StrandType:as}$”, for which the target mRNA knockdown amounted to 31%.
“RNA1{[fl2r](A)p.r(A)p.[fl2r](G)p.r(G)p.[fl2r](C)p.r(C)p.[fl2r](A)p.r(A)p.[fl2r](C)p.r(C)p.[fl2r](G)p.r(A)p.[fl2r](U)p.r(A)p.[fl2r](C)p.r(U)p.[fl2r](U)p.r(C)p.[fl2r](U)p.r(T)p.r(T)}|RNA2{r(A)p.r(G)p.r(A)p.r(A)p.r(G)p.[fl2r](U)p.r(A)p.[fl2r](U)p.r(C)p.r(G)p.r(G)p.[fl2r](U)p.[fl2r](U)p.r(G)p.r(G)p.r(C)p.r(C)p.[fl2r](U)p.[fl2r](U)p.r(T)p.r(T)}$$$RNA1{StrandType:ss}|RNA2{StrandType:as}$”: the target mRNA knockdown was determined as 46%.
In turn, “RNA1{[fl2r](A)p.r(A)p.[fl2r](G)p.r(U)p.[fl2r](A)p.r(G)p.[fl2r](U)p.r(C)p.[fl2r](C)p.r(C)p.[fl2r](C)p.r(C)p.[fl2r](U)p.r(U)p.[fl2r](G)p.r(A)p.[fl2r](A)p.r(G)p.r(A)p.r(T)p.r(T)}|RNA2{r(U)p.r(C)p.r(U)p.r(U)p.r(C)p.r(A)p.r(A)p.r(G)p.r(G)p.r(G)p.r(G)p.r(G)p.r(A)p.r(C)p.r(U)p.r(A)p.r(C)p.r(U)p.r(U)p.r(T)p.r(T)}$$$RNA1{StrandType:ss}|RNA2{StrandType:as}$” gave a target mRNA knockdown of 53%.
“RNA1{[fl2r](A)p.r(C)p.[fl2r](A)p.r(U)p.[fl2r](A)p.r(G)p.[fl2r](A)p.r(G)p.[fl2r](G)p.r(A)p.[fl2r](A)p.r(G)p.r(A)p.r(C)p.r(G)p.r(C)p.r(G)p.r(G)p.r(A)p.r(T)p.r(T)}|RNA2{[fl2r](U)p.r(C)p.[fl2r](C)p.r(G)p.[fl2r](C)p.r(G)p.[fl2r](U)p.r(C)p.[fl2r](U)p.r(U)p.[fl2r](C)p.r(C)p.[fl2r](U)p.r(C)p.[fl2r](U)p.r(A)p.[fl2r](U)p.r(G)p.r(U)p.r(T)p.r(T)}$$$RNA1{StrandType:ss}|RNA2{StrandType:as}$” displayed a target mRNA knockdown of 57%.
The result for “RNA1{[fl2r](A)p.r(C)p.[fl2r](C)p.r(U)p.[fl2r](U)p.r(A)p.[fl2r](A)p.r(G)p.[fl2r](G)p.r(A)p.[fl2r](C)p.r(C)p.[fl2r](A)p.r(C)p.[fl2r](C)p.r(G)p.[fl2r](G)p.r(A)p.[fl2r](U)p.r(T)p.r(T)}|RNA2{[fl2r](A)p.r(U)p.r(C)p.r(C)p.r(G)p.r(G)p.r(U)p.r(G)p.r(G)p.r(U)p.r(C)p.r(C)p.r(U)p.r(U)p.[fl2r](A)p.[fl2r](A)p.r(G)p.r(G)p.r(U)p.r(T)p.r(T)}$$$RNA1{StrandType:ss}|RNA2{StrandType:as}$” reads 41%; that for “RNA1{[fl2r](A)p.r(C)p.[fl2r](G)p.r(G)p.[fl2r](C)p.r(U)p.[fl2r](C)p.r(G)p.[fl2r](C)p.r(U)p.[fl2r](A)p.r(C)p.[fl2r](C)p.r(C)p.[fl2r](U)p.r(C)p.[fl2r](G)p.r(A)p.r(C)p.r(T)p.r(T)}|RNA2{r(G)p.r(U)p.r(C)p.r(G)p.r(A)p.r(G)p.r(G)p.r(G)p.r(U)p.r(A)p.r(G)p.r(C)p.r(G)p.r(A)p.r(G)p.r(C)p.r(C)p.r(G)p.r(U)p.r(T)p.r(T)}$$$RNA1{StrandType:ss}|RNA2{StrandType:as}$”, 72%.
The result for “RNA1{[fl2r](A)p.r(G)p.[fl2r](A)p.r(A)p.[fl2r](G)p.r(U)p.[fl2r](A)p.r(C)p.[fl2r](C)p.r(A)p.[fl2r](G)p.r(G)p.[fl2r](A)p.r(G)p.[fl2r](G)p.r(C)p.[fl2r](G)p.r(U)p.[fl2r](U)p.r(T)p.r(T)}|RNA2{r(A)p.r(A)p.r(C)p.[fl2r](G)p.r(C)p.r(C)p.r(U)p.r(C)p.r(C)p.r(U)p.[fl2r](G)p.[fl2r](G)p.r(U)p.r(A)p.r(C)p.r(U)p.r(U)p.r(C)p.r(U)p.r(T)p.r(T)}$$$RNA1{StrandType:ss}|RNA2{StrandType:as}$” reads 39%; that for “RNA1{[fl2r](A)p.r(G)p.[fl2r](A)p.r(C)p.[fl2r](U)p.r(A)p.[fl2r](A)p.r(G)p.[fl2r](C)p.r(C)p.[fl2r](C)p.r(A)p.[fl2r](A)p.r(A)p.[fl2r](A)p.r(G)p.[fl2r](G)p.r(G)p.[fl2r](C)p.r(T)p.r(T)}|RNA2{r(G)p.r(C)p.r(C)p.r(C)p.r(U)p.r(U)p.r(U)p.r(U)p.r(G)p.r(G)p.r(G)p.r(C)p.r(U)p.r(U)p.r(A)p.r(G)p.r(U)p.r(C)p.r(U)p.r(T)p.r(T)}$$$RNA1{StrandType:ss}|RNA2{StrandType:as}$”, 26%; that for “RNA1{[fl2r](A)p.r(G)p.[fl2r](A)p.r(G)p.[fl2r](A)p.r(G)p.[fl2r](G)p.r(U)p.[fl2r](G)p.r(G)p.[fl2r](A)p.r(G)p.[fl2r](G)p.r(U)p.[fl2r](A)p.r(U)p.[fl2r](C)p.r(U)p.[fl2r](C)p.r(T)p.r(T)}|RNA2{r(G)p.[fl2r](A)p.r(G)p.[fl2r](A)p.r(U)p.[fl2r](A)p.r(C)p.r(C)p.r(U)p.r(C)p.r(C)p.[fl2r](A)p.r(C)p.r(C)p.r(U)p.r(C)p.r(U)p.r(C)p.r(U)p.r(T)p.r(T)}$$$RNA1{StrandType:ss}|RNA2{StrandType:as}$”, 68%.
“RNA1{[fl2r](A)p.r(G)p.[fl2r](C)p.r(C)p.[fl2r](C)p.r(A)p.[fl2r](G)p.r(A)p.[fl2r](U)p.r(A)p.[fl2r](G)p.r(C)p.[fl2r](U)p.r(C)p.[fl2r](U)p.r(U)p.[fl2r](C)p.r(A)p.[fl2r](G)p.r(T)p.r(T)}|RNA2{r(C)p.r(U)p.r(G)p.r(A)p.r(A)p.r(G)p.r(A)p.r(G)p.r(C)p.r(U)p.r(A)p.r(U)p.r(C)p.r(U)p.r(G)p.r(G)p.r(G)p.r(C)p.r(U)p.r(T)p.r(T)}$$$RNA1{StrandType:ss}|RNA2{StrandType:as}$” gave a target mRNA knockdown of 35%.
For “RNA1{[fl2r](A)p.r(G)p.[fl2r](C)p.r(C)p.[fl2r](U)p.r(C)p.[fl2r](C)p.r(A)p.[fl2r](A)p.r(A)p.[fl2r](C)p.r(U)p.[fl2r](C)p.r(C)p.[fl2r](U)p.r(A)p.[fl2r](G)p.r(C)p.[fl2r](U)p.r(T)p.r(T)}|RNA2{r(A)p.r(G)p.r(C)p.r(U)p.r(A)p.r(G)p.r(G)p.r(A)p.r(G)p.r(U)p.r(U)p.r(U)p.r(G)p.r(G)p.r(A)p.r(G)p.r(G)p.r(C)p.r(U)p.r(T)p.r(T)}$$$RNA1{StrandType:ss}|RNA2{StrandType:as}$”, the target mRNA knockdown is 16%.
The result for “RNA1{[fl2r](A)p.r(G)p.[fl2r](G)p.r(A)p.[fl2r](G)p.r(A)p.[fl2r](C)p.r(C)p.[fl2r](G)p.r(U)p.[fl2r](G)p.r(A)p.[fl2r](C)p.r(A)p.[fl2r](U)p.r(U)p.[fl2r](U)p.r(C)p.[fl2r](G)p.r(T)p.r(T)}|RNA2{r(C)p.[fl2r](G)p.r(A)p.r(A)p.r(A)p.r(U)p.[fl2r](G)p.r(U)p.r(C)p.r(A)p.r(C)p.[fl2r](G)p.[fl2r](G)p.r(U)p.r(C)p.r(U)p.r(C)p.r(C)p.r(U)p.r(T)p.r(T)}$$$RNA1{StrandType:ss}|RNA2{StrandType:as}$” reads 33%; that for “RNA1{[fl2r](A)p.r(G)p.[fl2r](U)p.r(U)p.[fl2r](A)p.r(A)p.[fl2r](C)p.r(C)p.[fl2r](C)p.r(G)p.[fl2r](G)p.r(G)p.[fl2r](A)p.r(C)p.[fl2r](U)p.r(U)p.[fl2r](G)p.r(G)p.[fl2r](A)p.r(T)p.r(T)}|RNA2{r(U)p.r(C)p.r(C)p.r(A)p.r(A)p.r(G)p.r(U)p.r(C)p.r(C)p.r(C)p.r(G)p.r(G)p.r(G)p.r(U)p.r(U)p.r(A)p.r(A)p.r(C)p.r(U)p.r(T)p.r(T)}$$$RNA1{StrandType:ss}|RNA2{StrandType:as}$”, 65%.
